Measurements as given in US7109376B2, “Benzene and naphthylene derivatives and their use as UV screening agents” (DSM IP Assets B.V., priority 2001, dated 2006).

Assays:
[1] = irradiated in high dilution with a Hg-lamp 150 W (Heraeus)
[2] = solvent Cétiol LC (Cocoyl cyprylate caprate)
[3] = solvent Crodamol DA (diisopropyladipate)

Row | SMILES | photostability [1] | solubility in Cétiol LC [2] [%] | solubility in Crodamol DA [3] [%] | mixability with conventional cosmetic solvents
1 | C=CCc1cc(C(C)(C)C)cc2nc(-c3ccc(-c4nc5cc(C(C)(C)C)cc(CC=C)c5o4)cc3)oc12 [Example 1, 1,4-bis-[2-(5-tert.-butyl-7-allyl-benzoxazol)-yl]-benzene] | photostable | 1.1 |  | 
2 | CC(C)(C)c1cc(CCC[Si](C)(C)O[Si](C)(C)C)c2oc(-c3ccc(-c4nc5cc(C(C)(C)C)cc(CCC[Si](C)(C)O[Si](C)(C)C)c5o4)cc3)nc2c1 [Example 2, 1,4-bis-[2-(5-tert.-butyl-7-{3-(1,1,3,3,3-pentamethyl-disiloxanyl)-1-propyl}-benzoxazol)-yl]-benzene] | photostable | 18 |  | 
3 | CC(Cc1cccc2nc(-c3ccc(-c4nc5cccc(CC(C)C[Si](C)(C)O[Si](C)(C)C)c5o4)cc3)oc12)C[Si](C)(C)O[Si](C)(C)C (stereo not shown) [Example 3, 1,4-bis-[2-(7-{3-(1,1,3,3,3-pentamethyl-disiloxanyl)-1-isobutyl}-benzoxazol)-yl]-benzene] | photostable |  | 5.03 | 
4 | CC(Cc1cc(C(C)(C)C)cc2nc(-c3ccc(-c4nc5cc(C(C)(C)C)cc(CC(C)C[Si](C)(O[Si](C)(C)C)O[Si](C)(C)C)c5o4)cc3)oc12)C[Si](C)(O[Si](C)(C)C)O[Si](C)(C)C (stereo not shown) [Example 5, 1,4-bis-[2-(5-tert.-butyl-7-{3-(1,3,3,3-tetramethyl-1-[(tri-methyl-silyl)-oxy]-disiloxanyl)-1-isobutyl}-benzoxazol)-yl]-benzene] | photostable | 12.3 |  | 
5 | CCCCC=CC(C)c1cc(C)cc2nc(-c3ccc(-c4nc5cc(C)cc(C(C)C=CCCCC)c5o4)cc3)oc12 (stereo not shown) [Example 6, 1,4-bis-[2-(5-methyl-7-oct-3-en-2-yl-benzoxazol)-yl]-benzene] | photostable |  | 1.33 | 
6 | CCCCC=CC(C)c1cc(C(C)(C)C)cc2nc(-c3ccc(-c4nc5cc(C(C)(C)C)cc(C(C)C=CCCCC)c5o4)cc3)oc12 (stereo not shown) [Example 8, 1,4-bis-[2-(5-tert.-butyl-7-oct-3-en-2-yl-benzoxazol)-yl]-benzene] | photostable |  |  | easily mixable
7 | CCCCC=CC(C)c1cccc2nc(-c3ccc(-c4nc5cccc(C(C)C=CCCCC)c5o4)cc3)oc12 (stereo not shown) [Example 9, 1,4-bis-[2-(7-oct-3-en-2-yl-benzoxazol)-yl]-benzene] | photostable | 1.02 |  | 
8 | CCCCCCC(C)c1cc(C(C)(C)C)cc2nc(-c3ccc(-c4nc5cc(C(C)(C)C)cc(C(C)CCCCCC)c5o4)cc3)oc12 (stereo not shown) [Example 11, 1,4-bis-[2-(5-tert.-butyl-7-oct-2-yl-benzoxazol)-yl]-benzene] | photostable |  |  | easily mixable
